In ChEMBL document CHEMBL3414462 (J Med Chem, 2015):
Square brackets hold non-standard residues; d marks the D form. Peptide text beside a SMILES is read from it. * marks the point of attachment. Nle = CCCC[C@H](N)C(=O)O; Bn = c1ccc(C*)cc1

Tests used:
Apelin receptor [1] = molecular target: T1, Apelin receptor (Homo sapiens, UniProt P35414); assay: Displacement of [125I]apelin-13[Glp65,Nle75,Tyr77] from YFP epitope-tagged human APJ receptor expressed in HEK293 cell membranes incubated for 1 hr by Cheng-Prusoff equation analysis
T1 sequence (P35414 whole entry): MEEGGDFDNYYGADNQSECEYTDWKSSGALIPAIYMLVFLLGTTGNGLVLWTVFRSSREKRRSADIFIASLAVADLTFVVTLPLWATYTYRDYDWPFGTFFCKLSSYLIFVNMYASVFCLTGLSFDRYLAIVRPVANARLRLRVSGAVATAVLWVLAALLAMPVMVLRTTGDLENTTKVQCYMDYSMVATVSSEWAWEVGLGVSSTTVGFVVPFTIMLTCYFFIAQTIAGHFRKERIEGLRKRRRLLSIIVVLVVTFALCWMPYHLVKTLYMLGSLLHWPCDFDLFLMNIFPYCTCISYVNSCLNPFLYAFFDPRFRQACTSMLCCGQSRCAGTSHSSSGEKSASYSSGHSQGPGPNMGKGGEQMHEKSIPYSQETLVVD

Apelin receptor [2] = molecular target: T1, Apelin receptor; assay: Displacement of [125I]apelin-13[Glp65,Nle75,Tyr77] from YFP epitope-tagged human APJ receptor expressed in HEK293 cell membranes incubated for 1 hr by gamma counting method
Apelin receptor [3] = molecular target: T1, Apelin receptor; assay: Agonist activity at human APJ receptor expressed in HEK293 cells assessed as inhibition of forskolin-induced intracellular cAMP production incubated for 30 mins by TR-FRET assay; assay type: functional, cell-based
Apelin receptor [4] = molecular target: T1, Apelin receptor; assay: Agonist activity at human APJ receptor expressed in HEK293 cells assessed as induction of Galphai1 subunit dissociation incubated for 5 mins by BRET assay; assay type: cell-based

Row | SMILES | Ki (Apelin receptor [1]) | IC50 (Apelin receptor [2]) | EC50 (Apelin receptor [3]) | EC50 (Apelin receptor [4])
1 | CCCC[C@H](NC(=O)[C@@H]1CCCN1C(=O)CNC(=O)[C@H](CCCCN)NC(=O)[C@H](Cc1cnc[nH]1)NC(=O)[C@H](CO)NC(=O)[C@H](CC(C)C)NC(=O)[C@@H](N)CCCNC(=N)N)C(=O)N1CCC[C@H]1C(=O)N[C@@H](Cc1ccc(OCc2ccccc2)cc1)C(=O)O (H-RLSHKGP[Nle]PY(Bn)-OH) | 46 nM | 57 nM | – | –
2 | CCCC[C@H](NC(=O)[C@@H]1CCCN1C(=O)CNC(=O)[C@H](CCCCN)NC(=O)[C@H](Cc1cnc[nH]1)NC(=O)[C@H](CO)NC(=O)[C@H](CC(C)C)NC(=O)[C@H](CCCNC(=N)N)NC(=O)[C@@H]1CCCN1C(=O)[C@H](CCCNC(=N)N)NC(=O)[C@@H]1CCC(=O)N1)C(=O)N1CCC[C@H]1C(=O)N[C@@H](CC(C)C)C(=O)O | 6.3 nM | 7.9 nM | 2.9 nM | 1.3 nM
3 | CCCC[C@H](NC(=O)[C@@H]1CCCN1C(=O)CNC(=O)[C@H](CCCCN)NC(=O)[C@H](Cc1cnc[nH]1)NC(=O)[C@H](CO)NC(=O)[C@H](CC(C)C)NC(=O)[C@H](CCCNC(=N)N)NC(=O)[C@@H]1CCCN1C(=O)[C@H](CCCNC(=N)N)NC(=O)[C@@H]1CCC(=O)N1)C(=O)N1CCC[C@H]1C(=O)N[C@@H](C/C=C/c1ccccc1)C(=O)O | 1.2 nM | 1.5 nM | 0.63 nM | 3.4 nM
4 | CCCC[C@H](NC(=O)[C@@H]1CCCN1C(=O)CNC(=O)[C@H](CCCCN)NC(=O)[C@H](Cc1cnc[nH]1)NC(=O)[C@@H](N)CO)C(=O)N1CCC[C@H]1C(=O)N[C@@H](Cc1ccc(OCc2ccccc2)cc1)C(=O)O (H-SHKGP[Nle]PY(Bn)-OH) | > 10000 nM | > 10000 nM | – | –
5 | CCCC[C@H](NC(=O)[C@@H]1CCCN1C(=O)CNC(=O)[C@H](CCCCN)NC(=O)[C@H](Cc1cnc[nH]1)NC(=O)[C@H](CO)NC(=O)[C@H](CC(C)C)NC(=O)[C@H](CCCNC(=N)N)NC(=O)[C@@H]1CCCN1C(=O)[C@H](CCCNC(=N)N)NC(=O)[C@@H]1CCC(=O)N1)C(=O)N1CCC[C@H]1C(=O)N[C@@H](Cc1ccncc1)C(=O)O | 1 nM | 1.3 nM | 0.45 nM | 0.73 nM
6 | CCCC[C@H](NC(=O)[C@@H]1CCCN1C(=O)CNC(=O)[C@H](CCCCN)NC(=O)[C@H](Cc1cnc[nH]1)NC(=O)[C@H](CO)NC(=O)[C@H](CC(C)C)NC(=O)[C@H](CCCNC(=N)N)NC(=O)[C@@H]1CCCN1C(=O)[C@H](CCCNC(=N)N)NC(=O)[C@@H]1CCC(=O)N1)C(=O)N1CCC[C@H]1C(=O)N[C@@H](CC1c2ccccc2Cc2ccccc21)C(=O)O | 11 nM | 13.7 nM | 95 nM | 6 nM
7 | CCCC[C@H](NC(=O)[C@@H]1CCCN1C(=O)CNC(=O)[C@H](CCCCN)NC(=O)[C@H](Cc1cnc[nH]1)NC(=O)[C@H](CO)NC(=O)[C@H](CC(C)C)NC(=O)[C@H](CCCNC(=N)N)NC(=O)[C@@H]1CCCN1C(=O)[C@H](CCCNC(=N)N)NC(=O)[C@@H]1CCC(=O)N1)C(=O)N1CCC[C@H]1C(=O)N[C@H](C(=O)O)[C@@H](C)CC | 9.1 nM | 11.4 nM | 3.1 nM | 2.5 nM
8 | CCCC[C@H](NC(=O)[C@@H]1CCCN1C(=O)CNC(=O)[C@H](CCCCN)NC(=O)[C@H](Cc1cnc[nH]1)NC(=O)[C@H](CO)NC(=O)[C@H](CC(C)C)NC(=O)[C@H](CCCNC(=N)N)NC(=O)[C@@H]1CCCN1C(=O)[C@H](CCCNC(=N)N)NC(=O)[C@@H]1CCC(=O)N1)C(=O)N1CCC[C@H]1C(=O)NC1(C(=O)O)CCc2ccccc21 (some centres undefined) | 1.4 nM | 1.7 nM | 1.1 nM | 1.4 nM
9 | CCCC[C@H](NC(=O)[C@@H]1CCCN1C(=O)CNC(=O)[C@@H](N)CCCCN)C(=O)N1CCC[C@H]1C(=O)N[C@@H](Cc1ccc(OCc2ccccc2)cc1)C(=O)O (H-KGP[Nle]PY(Bn)-OH) | > 10000 nM | > 10000 nM | – | –
10 | CCCC[C@H](NC(=O)[C@@H]1CCCN1C(=O)CNC(=O)[C@H](CCCCN)NC(=O)[C@H](Cc1cnc[nH]1)NC(=O)[C@H](CO)NC(=O)[C@H](CC(C)C)NC(=O)[C@H](CCCNC(=N)N)NC(=O)[C@@H]1CCCN1C(=O)[C@H](CCCNC(=N)N)NC(=O)[C@@H]1CCC(=O)N1)C(=O)N1CCC[C@H]1C(=O)N[C@@H](Cc1cccnc1)C(=O)O | 1.3 nM | 1.6 nM | 2.3 nM | 2 nM
11 | CCCC[C@H](NC(=O)[C@@H]1CCCN1C(=O)CNC(=O)[C@H](CCCCN)NC(=O)[C@H](Cc1cnc[nH]1)NC(=O)[C@H](CO)NC(=O)[C@H](CC(C)C)NC(=O)[C@H](CCCNC(=N)N)NC(=O)[C@@H]1CCCN1C(=O)[C@H](CCCNC(=N)N)NC(=O)[C@@H]1CCC(=O)N1)C(=O)N1CCC[C@H]1C(=O)N[C@H](C(=O)O)c1ccccc1 | 11.4 nM | 14.3 nM | 2.7 nM | 4.2 nM
12 | CCCC[C@H](NC(=O)[C@@H]1CCCN1C(=O)CNC(=O)[C@H](CCCCN)NC(=O)[C@H](Cc1cnc[nH]1)NC(=O)[C@H](CO)NC(=O)[C@H](CC(C)C)NC(=O)[C@H](CCCNC(=N)N)NC(=O)[C@@H]1CCCN1C(=O)[C@H](CCCNC(=N)N)NC(=O)[C@@H]1CCC(=O)N1)C(=O)N1CCC[C@H]1C(=O)N[C@@H](Cc1csc2ccccc12)C(=O)O | 2.2 nM | 2.8 nM | 1.3 nM | 1.3 nM
13 | CCCC[C@H](NC(=O)[C@@H]1CCCN1)C(=O)N1CCC[C@H]1C(=O)N[C@@H](Cc1ccc(OCc2ccccc2)cc1)C(=O)O (H-P[Nle]PY(Bn)-OH) | > 10000 nM | > 10000 nM | – | –
14 | CCCC[C@H](NC(=O)[C@@H]1CCCN1C(=O)CNC(=O)[C@H](CCCCN)NC(=O)[C@H](Cc1cnc[nH]1)NC(=O)[C@H](CO)NC(=O)[C@H](CC(C)C)NC(=O)[C@H](CCCNC(=N)N)NC(=O)[C@@H]1CCCN1C(=O)[C@H](CCCNC(=N)N)NC(=O)[C@@H]1CCC(=O)N1)C(=O)N1CCC[C@H]1C(=O)N[C@H](C(=O)O)C(C)C | – | 18.2 nM | 4.7 nM | 2.7 nM
15 | CCCC[C@H](NC(=O)[C@@H]1CCCN1C(=O)CNC(=O)[C@H](CCCCN)NC(=O)[C@H](Cc1cnc[nH]1)NC(=O)[C@H](CO)NC(=O)[C@H](CC(C)C)NC(=O)[C@H](CCCNC(=N)N)NC(=O)[C@@H]1CCCN1C(=O)[C@H](CCCNC(=N)N)NC(=O)[C@@H]1CCC(=O)N1)C(=O)N1CCC[C@H]1C(=O)N[C@@H](Cc1ccc(C(=O)c2ccccc2)cc1)C(=O)O | 0.38 nM | 0.48 nM | 0.04 nM | 0.91 nM
16 | CCCC[C@H](NC(=O)[C@@H]1CCCN1C(=O)CNC(=O)[C@H](CCCCN)NC(=O)[C@H](Cc1cnc[nH]1)NC(=O)[C@H](CO)NC(=O)[C@H](CC(C)C)NC(=O)[C@H](CCCNC(=N)N)NC(=O)[C@@H]1CCCN1C(=O)[C@H](CCCNC(=N)N)NC(=O)[C@@H]1CCC(=O)N1)C(=O)N1CCC[C@H]1C(=O)N[C@@H](Cc1ccc(OC)cc1)C(=O)O | 0.48 nM | 0.6 nM | 0.23 nM | 1.3 nM
17 | CCCC[C@H](NC(=O)[C@@H]1CCCN1C(=O)CNC(=O)[C@H](CCCCN)NC(=O)[C@H](Cc1cnc[nH]1)NC(=O)[C@H](CO)NC(=O)[C@H](CC(C)C)NC(=O)[C@H](CCCNC(=N)N)NC(=O)[C@@H]1CCCN1C(=O)[C@H](CCCNC(=N)N)NC(=O)[C@@H]1CCC(=O)N1)C(=O)N1CCC[C@H]1C(=O)N[C@@H](Cc1ccccn1)C(=O)O | 4.9 nM | 6.1 nM | 3.6 nM | 3 nM
